{"source": "patent US7538131B2", "about": "“2-{-3-′2-(phenyl)-oxazol-4-ylmethoxymethyl-cyclohexylmethoxy}-propionic acid derivatives useful as peroxisome proliferator-activated receptor (PPAR) ligands for the treatment of hyperlipidemia and diabetes” (Sanofi-Aventis Deutschland GmbH, priority 2004, dated 2009)", "key": {"[1]": {"target": "T1, human PPARalpha (Homo sapiens, UniProt Q07869)", "T1 construct": "human PPARalpha receptor (amino acids S167-Y468); expressed in transfected cells; host or cells: HEK cells (stably transfected, pcDNA3, CMV promoter)", "T1 sequence (Q07869 167-468)": "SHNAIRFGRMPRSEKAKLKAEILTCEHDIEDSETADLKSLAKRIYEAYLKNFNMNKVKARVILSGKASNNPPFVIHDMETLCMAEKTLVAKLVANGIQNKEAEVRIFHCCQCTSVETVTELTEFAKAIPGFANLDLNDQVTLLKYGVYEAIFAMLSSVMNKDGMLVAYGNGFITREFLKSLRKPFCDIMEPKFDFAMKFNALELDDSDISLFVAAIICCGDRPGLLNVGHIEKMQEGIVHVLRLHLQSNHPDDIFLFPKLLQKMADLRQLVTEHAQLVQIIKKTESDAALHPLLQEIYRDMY", "experiment": "Cellular PPARalpha assay (stably transfected HEK luciferase reporter cell line)", "type": "cell-based", "conditions": "GR-GAL4-humanPPARalpha-LBD, 24 h", "procedure": "1) Determination of EC50 Values of PPAR Agonists in the Cellular PPARalpha Assay\nThe activity of the novel compounds of the present invention was tested as follows The potency of substances which bind to human PPARalpha and activate it in an agonistic manner is analyzed using a stably transfected HEK cell line (HEK=human embryo kidney) which is referred to here as PPARalpha reporter cell line. It contained two genetic elements, a luciferase reporter element (pdeltaM-GAL4-Luc-Zeo) and a PPARalpha fusion protein (GR-GAL4-humanPPARalpha-LBD) which mediates expression of the luciferase reporter element depending on a PPARalpha ligand. The stably and constitutively expressed fusion protein GR-GAL4-humanPPARalpha-LBD binds in the cell nucleus of the PPARalpha reporter cell line via the GAL4 protein portion to the GAL4 DNA binding motifs 5′-upstream of the luciferase reporter element which was stably integrated in the genome of the cell line. There is only little expression of the luciferase reporter gene without addition of a PPARalpha ligand if fatty acid-depleted fetal calf serum (cs-FCS) is used in the assay. PPARalpha ligands bind and activate the PPARalpha fusion protein and thereby bring about expression of the luciferase reporter gene. The luciferase which is formed can be detected by means of chemiluminescence via an appropriate substrate.\nThe PPARalpha reporter cell line was prepared in two steps. Firstly, the luciferase reporter element was constructed and stably transfected into HEK cells. For this purpose, five binding sites of the yeast transcription factor GAL4 (in each case 5′-CGGAGTACTGTCCTCCGAG-3′) were cloned in 5′-upstream of a 68 bp-long minimal MMTV promoter (Genbank Accession #V01175). The minimal MMTV promoter section contains a CCAAT box and a TATA element in order to enable efficient transcription by RNA polymerase II. The cloning and sequencing of the GAL4-MMTV construct took place in analogy to the description of Sambrook J. et. al. (Molecular Cloning, Cold Spring Harbor Laboratory Press, 1989). Which is hereby incorporated by reference herein.\nThe complete Photinus pyralis luciferase gene (Genbank Accession #M15077) was cloned in 3′-downstream of the GAL4-MMTV element. After sequencing, the luciferase reporter element consisting of five GAL4 binding sites, MMTV promoter and luciferase gene was subcloned into a plasmid which confers zeozin resistance in order to obtain the plasmid pdeltaM-GAL4-Luc-Zeo. This vector was transfected into HEK cells in accordance with the statements in Ausubel, F.M. et al. (Current Protocols in Molecular Biology, Vol. 1-3, John Wiley & Sons, Inc., 1995).\nIn a second step, the PPARalpha fusion protein (GR-GAL4-humanPPARalpha-LBD) was introduced into the stable cell clone described. For this purpose, initially the cDNA coding for the N-terminal 76 amino acids of the glucocorticoid receptor (Genbank Accession # P04150) was linked to the cDNA section coding for amino acids 1-147 of the yeast transcription factor GAL4 (Genbank Accession #P04386). The cDNA of the ligand-binding domain of the human PPARalpha receptor (amino acids S167-Y468; Genbank Accession #S74349) was cloned in at the 3′ end of this GR-GAL4 construct. The fusion construct prepared in this way (GR-GAL4-humanPPARalpha-LBD) was subcloned into the plasmid pcDNA3 (from Invitrogen) in order to enable constitutive expression therein by the cytomegalovirus promoter. This plasmid was linearized with a restriction endonuclease and stably transfected into the previously described cell clone containing the luciferase reporter element. The finished PPARalpha reporter cell line which contains a luciferase reporter element and constitutively expresses the PPARalpha fusion protein (GR-GAL4-humanPPARalpha-LBD) was isolated by selection with zeozin (0.5 mg/ml) and G418 (0.5 mg/ml).\nThe activity of PPARalpha agonists was determined in a 3-day assay which is described below: […]"}, "[2]": {"target": "T2, human PPARgamma (Homo sapiens, UniProt P37231)", "T2 construct": "human PPARgamma receptor (amino acids 1152-Y475); expressed in transfected cells; host or cells: HEK cells (transiently transfected, pcDNA3-GAL4-humanPPARgammaLBD)", "T2 sequence (P37231 182-477 isoform P37231-2 limits assumed)": "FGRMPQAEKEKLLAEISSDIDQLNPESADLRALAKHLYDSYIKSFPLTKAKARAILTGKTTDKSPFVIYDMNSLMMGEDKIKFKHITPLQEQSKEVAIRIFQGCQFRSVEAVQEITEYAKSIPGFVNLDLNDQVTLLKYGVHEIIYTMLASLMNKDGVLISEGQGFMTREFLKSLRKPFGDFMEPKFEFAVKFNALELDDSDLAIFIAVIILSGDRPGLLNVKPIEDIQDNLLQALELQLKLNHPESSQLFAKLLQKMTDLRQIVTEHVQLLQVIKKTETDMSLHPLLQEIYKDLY", "experiment": "Cellular PPARgamma assay (transiently transfected HEK cells, luciferase reporter)", "type": "cell-based", "conditions": "GAL4-humanPPARgammaLBD, firefly/Renilla luciferase ratio, 48 h", "text": "4) Determination of EC50 Values of PPAR Agonists in the Cellular PPARgamma Assay\nA transient transfection system is employed to determine the cellular PPARgamma activity of PPAR agonists. It is based on the use of a luciferase reporter plasmid (pGL3basic-5xGAL4-TK) and of a PPARgamma expression plasmid (pcDNA3-GAL4-humanPPARgammaLBD). Both plasmids are transiently transfected into human embryonic kidney cells (HEK cells). There is then expression in these cells of the fusion protein GAL4-humanPPARgammaLBD which binds to the GAL4 binding sites of the reporter plasmid. In the presence of a PPARgamma-active ligand, the activated fusion protein GAL4-humanPPARgammaLBD induces expression of the luciferase reporter gene, which can be detected in the form of a chemiluminescence signal after addition of a luciferase substrate. As a difference from the stably transfected PPARalpha reporter cell line, in the cellular PPARgamma assay the two components (luciferase reporter plasmid and PPARgamma expression plasmid) are transiently transfected into HEK cells because stable and permanent expression of the PPARgamma fusion protein is cytotoxic.\nThe luciferase reporter plasmid pGL3basic-5xGAL4-TK is based on the vector pGL3basic from Promega. The reporter plasmid is prepared by cloning five binding sites of the yeast transcription factor GAL4 (each binding site with the sequence 5′-CTCGGAGGACAGTACTCCG-3′), together with a 160 bp-long thymidine kinase promoter section (Genbank Accession #AF027128) 5′-upstream into pGL3basic. 3′-downstream of the thymidine kinase promoter is the complete luciferase gene from Photinus pyralis (Genbank Accession # Ml 5077), which is already a constituent of the plasmid pGL3basic used. The cloning and sequencing of the reporter plasmid pGL3basic-5xGAL4-TK took place in analogy to the description in Sambrook J. et. al. (Molecular cloning, Cold Spring Harbor Laboratory Press, 1989).\nThe PPARgamma expression plasmid pcDNA3-GAL4-humanPPARgammaLBD was prepared by first cloning the cDNA coding for amino acids 1-147 of the yeast transcription factor GAL4 (Genbank Accession #P04386) into the plasmid pcDNA3 (from Invitrogen) 3′-downstream of the cytomegalovirus promoter. Subsequently, the cDNA of the ligand-binding domain (LBD) of the human PPARgamma receptor (amino acids […]; Accession #g1480099) 3′-downstream of the GAL4 DNA binding domain was cloned. Cloning and sequencing of the PPARgamma expression plasmid pcDNA3-GAL4-humanPPARgammaLBD again took place in analogy to the description in Sambrook J. et. al. (Molecular cloning, Cold Spring Harbor Laboratory Press, 1989). Besides the luciferase reporter plasmid pGL3basic-5xGAL4-TK and the PPARgamma expression plasmid pcDNA3-GAL4-humanPPARgammaLBD, also used for the cellular PPARgamma assay are the reference plasmid pRL-CMV (from Promega) and the plasmid pBluescript SK(+) from Stratagene. All four plasmids were prepared using a plasmid preparation kit from Qiagen, which ensured a plasmid quality with a minimal endotoxin content, before transfection into HEK cells.\nThe activity of PPARgamma agonists is determined in a 4-day assay which is described below. Before the transfection, HEK cells were cultivated in DMEM medium (#41965-039, Invitrogen) which was mixed with the following additions: 10% FCS (#16000-044, Invitrogen),1% penicillin-streptomycin solution (#15140-122, Invitrogen) and 2 mM L-glutamine (#25030-024, Invitrogen).\nSolution A, a transfection mixture which contains all four plasmids previously described in addition to DMEM medium, was prepared. […]"}}}
{"smiles": "CCc1oc(-c2ccc(C(F)(F)F)cc2)nc1COC[C@@H]1CCC[C@H](COC(C)(C)C(=O)O)C1", "note": "[Example 1, 2-{(1S,3R)-3-[5-Ethyl-2-(4-trifluoromethylphenyl)oxazol-4-ylmethoxymethyl]cyclohexylmethoxy}-2-methylpropionic acid]", "values": [{"measurement": "EC50", "setting": "[1]", "result": 0.0036, "unit": "µM"}, {"measurement": "EC50", "setting": "[2]", "result": 1.56, "unit": "µM"}]}
{"smiles": "CC(C)c1oc(-c2cccc(C(F)(F)F)c2)nc1COC[C@@H]1CCC[C@H](COC(C)(C)C(=O)O)C1", "note": "[Example 7, 2-{(1S,3R)-3-[5-Isopropyl-2-(3-trifluoromethylphenyl)oxazol-4-ylmethoxymethyl]cyclohexylmethoxyl}-2-methylpropionic acid]", "values": [{"measurement": "EC50", "setting": "[1]", "result": 0.0462, "unit": "µM"}, {"measurement": "EC50", "setting": "[2]", "result": 0.8, "unit": "µM"}]}
{"smiles": "CC(C)c1oc(-c2ccc(C(C)(C)C)cc2)nc1COC[C@H]1CCC[C@@H](COC(C)(C)C(=O)O)C1", "note": "[Example 18, 2-{(1R,3S)-3-[2-(4-tert-butylphenyl)-5-isopropyloxazol-4-ylmethoxymethyl]cyclohexylmethoxy}-2-methylpropionic acid]", "values": [{"measurement": "EC50", "setting": "[1]", "result": 0.0205, "unit": "µM"}, {"measurement": "EC50", "setting": "[2]", "result": 0.0383, "unit": "µM"}]}
{"smiles": "CC(C)c1oc(-c2ccc(C(F)(F)F)cc2)nc1COC[C@@H]1CCC[C@H](COC(C)(C)C(=O)O)C1", "note": "[Example 6, 2-{(1S,3R)-3-[5-Isopropyl-2-(4-trifluoromethylphenyl)oxazol-4-ylmethoxymethyl]cyclohexylmethoxy}-2-methylpropionic acid]", "values": [{"measurement": "EC50", "setting": "[1]", "result": 0.0193, "unit": "µM"}, {"measurement": "EC50", "setting": "[2]", "result": 1.88, "unit": "µM"}]}
{"smiles": "CC(C)c1oc(-c2ccc(C(C)(C)C)cc2)nc1COC[C@@H]1CCC[C@H](COC(C)(C)C(=O)O)C1", "note": "[Example 9, 2-{(1S,3R)-3-[2-(4-tert-butylphenyl)-5-isopropyloxazol-4-ylmethoxymethyl]cyclohexylmethoxy}-2-methylpropionic acid]", "values": [{"measurement": "EC50", "setting": "[1]", "result": 0.0488, "unit": "µM"}, {"measurement": "EC50", "setting": "[2]", "result": 0.492, "unit": "µM"}]}
{"smiles": "COc1cccc(-c2nc(COC[C@@H]3CCC[C@H](COC(C)(C)C(=O)O)C3)c(C(C)C)o2)c1", "note": "[Example 10, 2-{1(1S,3R)-3-[5-Isopropyl-2-(3-methoxyphenyl)oxazol-4-ylmethoxymethyl]cyclohexylmethoxy}-2-methylpropionic acid]", "values": [{"measurement": "EC50", "setting": "[1]", "result": 0.381, "unit": "µM"}, {"measurement": "EC50", "setting": "[2]", "result": 0.672, "unit": "µM"}]}
{"smiles": "CC(C)c1oc(-c2ccc3ccccc3c2)nc1COC[C@H]1CCC[C@@H](COC(C)(C)C(=O)O)C1", "note": "[Example 14, 2-{(1R,3S)-3-[5-Isopropyl-2-(naphth-2-yl)oxazol-4-ylmethoxymethyl]cyclohexylmethoxy}-2-methylpropionic acid]", "values": [{"measurement": "EC50", "setting": "[1]", "result": 0.0187, "unit": "µM"}, {"measurement": "EC50", "setting": "[2]", "result": 0.127, "unit": "µM"}]}
{"smiles": "Cc1ccc(-c2nc(COC[C@H]3CCC[C@@H](COC(C)(C)C(=O)O)C3)c(C(C)C)o2)cc1C", "note": "[Example 12, 2-{(1R,3S)-3-[2-(3,4-Dimethylphenyl)-5-isopropyloxazol-4-ylmethoxymethyl]cyclohexylmethoxy}-2-methylpropionic acid]", "values": [{"measurement": "EC50", "setting": "[1]", "result": 0.0055, "unit": "µM"}, {"measurement": "EC50", "setting": "[2]", "result": 0.133, "unit": "µM"}]}
{"smiles": "CCc1oc(-c2ccc(C)c(C)c2)nc1COC[C@H]1CCC[C@@H](COC(C)(C)C(=O)O)C1", "note": "[Example 21, 2-{(1R,3S)-3-[2-(3,4-Dimethylphenyl)-5-ethyloxazol-4-ylmethoxymethyl]cyclohexylmethoxyl}-2-methylpropionic acid]", "values": [{"measurement": "EC50", "setting": "[1]", "result": 0.0016, "unit": "µM"}, {"measurement": "EC50", "setting": "[2]", "result": 0.184, "unit": "µM"}]}
{"smiles": "CCc1oc(-c2ccc(C(C)(C)C)cc2)nc1COC[C@@H]1CCC[C@H](COC(C)(C)C(=O)O)C1", "note": "[Example 5, 2-{1(1S,3R)-3-[2-(4-tert-butylphenyl)-5-ethyloxazol-4-ylmethoxymethyl]cyclohexylmethoxy}-2-methylpropionic acid]", "values": [{"measurement": "EC50", "setting": "[1]", "result": 0.0143, "unit": "µM"}, {"measurement": "EC50", "setting": "[2]", "result": 0.266, "unit": "µM"}]}
